Laboratory results from ChEMBL document CHEMBL1201862, “PubChem BioAssay data set” (2004).
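Five compound concentrations were applied to cells in 96-well plates for 48 hours; endpoints were derived by simple linear interpolation of the resulting dose-response curve. GI50 = concentration required for 50% inhibition of growth.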 The source made the active and inactive calls. Cut-off read from the data, not from the text of the source: active = GI50 up to about 1.1 µM and inactive = higher.

Columns and labels:
Assay in all cases: NCI-60 cell line screen, 48 h
SK-OV-3 = test system: SK-OV-3
SN12C = test system: SN12C
CAKI-1 = test system: CAKI-1
K562 = test system: K562
UACC-257 = test system: UACC-257
HT-29 = test system: HT-29
HOP-92 = test system: HOP-92
UO-31 = test system: UO-31
HL-60 = test system: HL-60
HCT-15 = test system: HCT-15
COLO 205 = test system: COLO 205
SK-MEL-5 = test system: SK-MEL-5
OVCAR-8 = test system: OVCAR-8
TK-10 = test system: TK-10
SW-620 = test system: SW-620
NCI-H226 = test system: NCI-H226
SF-295 = test system: SF-295
HCT-116 = test system: HCT-116
RXF 393 = test system: RXF 393
SNB-75 = test system: SNB-75

| Compound | GI50 (SK-OV-3) | GI50 (SN12C) | GI50 (CAKI-1) | GI50 (K562) | GI50 (UACC-257) | GI50 (HT-29) | GI50 (HOP-92) | GI50 (UO-31) | GI50 (HL-60) | GI50 (HCT-15) | GI50 (COLO 205) | GI50 (SK-MEL-5) | GI50 (OVCAR-8) | GI50 (TK-10) | GI50 (SW-620) | GI50 (NCI-H226) | GI50 (SF-295) | GI50 (HCT-116) | GI50 (RXF 393) | GI50 (SNB-75) |
| --- | --- | --- | --- | --- | --- | --- | --- | --- | --- | --- | --- | --- | --- | --- | --- | --- | --- | --- | --- | --- |
| COC(=O)C#Cc1cccc(OC)c1OC | 48 µM (inactive) | 48.1 µM (inactive) | 28.6 µM (inactive) | 21.1 µM (inactive) | > 100 µM (inactive) | 27 µM (inactive) | 25.8 µM (inactive) | 20.4 µM (inactive) | 33 µM (inactive) | 32.4 µM | 27 µM (inactive) | 29.6 µM (inactive) | 40.3 µM (inactive) | 41.8 µM (inactive) | 47 µM (inactive) | 43.3 µM (inactive) | 40.5 µM (inactive) | 33.6 µM (inactive) | – | – |
| N=C(N)Nc1ncccc1[N+](=O)[O-] | > 100 µM (inactive) | > 100 µM (inactive) | > 100 µM (inactive) | > 100 µM (inactive) | 23.6 µM (inactive) | 40.6 µM (inactive) | > 100 µM (inactive) | > 100 µM (inactive) | 19.7 µM (inactive) | 82.2 µM | 21.8 µM (inactive) | 38.9 µM (inactive) | > 88.3 µM (inactive) | – | > 100 µM (inactive) | > 100 µM (inactive) | > 100 µM (inactive) | 38.4 µM (inactive) | > 100 µM (inactive) | > 100 µM (inactive) |
| C/N=c1/ssc(=S)n1C(C)C | – | – | 21.7 µM (inactive) | 3.06 µM (inactive) | 14.5 µM (inactive) | 3.3 µM (inactive) | 14.3 µM (inactive) | 37.7 µM (inactive) | 2.3 µM (inactive) | – | 16.1 µM (inactive) | 19.8 µM (inactive) | 25.6 µM (inactive) | 44.6 µM (inactive) | 4.24 µM (inactive) | 56.2 µM (inactive) | 33.9 µM (inactive) | 19.7 µM (inactive) | 7.5 µM (inactive) | 1.11 µM (active) |
| CCOC(=O)c1csc(NC(=O)CCN(CC)CC)n1 | > 100 µM (inactive) | – | 20.5 µM (inactive) | 71 µM (inactive) | 28.1 µM (inactive) | 23.8 µM (inactive) | 24.5 µM (inactive) | 35.7 µM (inactive) | 39.1 µM (inactive) | 27.6 µM | 33.8 µM (inactive) | 45.8 µM (inactive) | 30.7 µM (inactive) | 23.8 µM (inactive) | 27.2 µM (inactive) | 30.3 µM (inactive) | > 100 µM (inactive) | – | 49.4 µM (inactive) | 28.1 µM (inactive) |
| Cc1c2c(cc3c1[nH]c1ccccc13)C=NCC2 | 46.8 µM (inactive) | 19 µM (inactive) | 11.3 µM (inactive) | 6.17 µM (inactive) | 7.83 µM (inactive) | 14.2 µM (inactive) | 3.18 µM (inactive) | 24 µM (inactive) | 5.78 µM (inactive) | 13.1 µM | 7.13 µM (inactive) | 6.41 µM (inactive) | 10.2 µM (inactive) | – | 8.43 µM (inactive) | 20.7 µM (inactive) | 11.2 µM (inactive) | 6.34 µM (inactive) | 6.89 µM (inactive) | 10.6 µM (inactive) |
| OCCNCN(CNCCO)c1nc(N(CNCCO)CNCCO)nc(N(CNCCO)CNCCO)n1 | 0.0861 µM (active) | 0.131 µM (active) | – | 0.04 µM (active) | 0.0643 µM (active) | > 0.4 µM (active) | 0.0743 µM (active) | 0.0851 µM (active) | – | 0.0556 µM | 0.0411 µM (active) | – | 0.0755 µM (active) | 0.133 µM (active) | 0.04 µM (active) | 0.0802 µM (active) | 0.082 µM (active) | – | 0.0676 µM (active) | – |
| COc1ccc(OC)c(NC(=O)C(=O)C(C(=O)c2ccccc2F)C2OC(=O)c3ccccc32)c1 (centres undefined) | 59.4 µM (inactive) | 35.9 µM (inactive) | 67.8 µM (inactive) | 42.8 µM (inactive) | > 100 µM (inactive) | 45.5 µM (inactive) | > 100 µM (inactive) | 50.6 µM (inactive) | 34.8 µM (inactive) | 62.5 µM | 48.3 µM (inactive) | 79.1 µM (inactive) | 35.1 µM (inactive) | > 100 µM (inactive) | 49.2 µM (inactive) | 16.6 µM (inactive) | 45.8 µM (inactive) | 37.3 µM (inactive) | 25.5 µM (inactive) | 39.7 µM (inactive) |
| N/C(=C\c1ccc(/C=C(\NC(=O)c2ccccc2)c2nc3c([nH]2)C(=O)c2ccccc2C3=O)cc1)c1nc2c([nH]1)C(=O)c1ccccc1C2=O | 24.1 µM (inactive) | 14.3 µM (inactive) | 14.3 µM (inactive) | 14.9 µM (inactive) | 17.8 µM (inactive) | 14.7 µM (inactive) | 7.83 µM (inactive) | 4.84 µM (inactive) | 10 µM (inactive) | 13.9 µM | 14.8 µM (inactive) | 16.5 µM (inactive) | 15.8 µM (inactive) | 23.1 µM (inactive) | 20.4 µM (inactive) | 11.5 µM (inactive) | 16.5 µM (inactive) | 14.5 µM (inactive) | 11.8 µM (inactive) | 3.65 µM (inactive) |
| CCOC(=O)/C=C(\C)c1ccc(OC)cc1 | – | > 100 µM (inactive) | > 100 µM (inactive) | – | > 100 µM (inactive) | 88.9 µM (inactive) | > 100 µM (inactive) | > 100 µM (inactive) | > 100 µM (inactive) | > 100 µM | > 100 µM (inactive) | > 100 µM (inactive) | > 100 µM (inactive) | > 100 µM (inactive) | > 100 µM (inactive) | > 100 µM (inactive) | > 100 µM (inactive) | > 100 µM (inactive) | > 100 µM (inactive) | > 100 µM (inactive) |
| CCOC(=O)C(NC(=O)CC)(Nc1ccccc1OC)C(F)(F)F (centres undefined) | > 100 µM (inactive) | > 100 µM (inactive) | 13 µM (inactive) | > 100 µM (inactive) | > 100 µM (inactive) | > 100 µM (inactive) | > 100 µM (inactive) | > 100 µM (inactive) | > 100 µM (inactive) | > 100 µM | > 100 µM (inactive) | > 100 µM (inactive) | > 100 µM (inactive) | > 100 µM (inactive) | > 100 µM (inactive) | – | > 100 µM (inactive) | > 100 µM (inactive) | > 100 µM (inactive) | > 100 µM (inactive) |
| CCCCOc1ccc(OCCCCCCCCCC[N+](C)(C)C)cc1 | 2.89 µM (inactive) | 3.62 µM (inactive) | 3.73 µM (inactive) | 2.74 µM (inactive) | 5.08 µM (inactive) | 0.452 µM (active) | 1.33 µM (inactive) | 8.02 µM (inactive) | 0.39 µM (active) | 14.9 µM | 1.24 µM (inactive) | 1.91 µM (inactive) | 3.66 µM (inactive) | – | 3.66 µM (inactive) | 4.26 µM (inactive) | 6.17 µM (inactive) | 2.34 µM (inactive) | 0.796 µM (active) | 2.17 µM (inactive) |
| CCOC(=O)/C(C#N)=C1/SC(C(=O)N/N=C/c2ccc(OC)cc2)=C(N)N1c1ccccc1 | 32.4 µM (inactive) | – | – | 0.205 µM (active) | 59.4 µM (inactive) | 31.3 µM (inactive) | 3.82 µM (inactive) | > 100 µM (inactive) | > 100 µM (inactive) | – | > 100 µM (inactive) | 39.4 µM (inactive) | > 100 µM (inactive) | > 100 µM (inactive) | > 100 µM (inactive) | > 100 µM (inactive) | 16.1 µM (inactive) | > 100 µM (inactive) | – | 0.318 µM (active) |
| Nc1[nH]cnc2ncnc1-2 [ADENINE] | > 250 µM (inactive) | 96.2 µM (inactive) | – | > 248 µM (inactive) | 200 µM (inactive) | > 121 µM (inactive) | 146 µM (inactive) | 129 µM (inactive) | 36.6 µM (inactive) | – | > 162 µM (inactive) | > 96.6 µM (inactive) | 105 µM (inactive) | – | 231 µM (inactive) | 111 µM (inactive) | 108 µM (inactive) | > 250 µM (inactive) | 30.1 µM (inactive) | 121 µM (inactive) |
| COc1ccc(/C=N/N=C(N)N)c(C(=O)O)c1OC | > 100 µM (inactive) | > 100 µM (inactive) | > 100 µM (inactive) | > 100 µM (inactive) | > 100 µM (inactive) | > 100 µM (inactive) | – | > 100 µM (inactive) | > 100 µM (inactive) | > 100 µM | > 10 µM (inactive) | > 100 µM (inactive) | > 100 µM (inactive) | > 100 µM (inactive) | > 100 µM (inactive) | – | > 100 µM (inactive) | > 100 µM (inactive) | > 100 µM (inactive) | > 100 µM (inactive) |
| Nc1nc(SCCNC(=O)CCc2ccc(O)c(I)c2)nc2c1ncn2C1OC(CO)C(O)C1O (centres undefined) | > 100 µM (inactive) | > 100 µM (inactive) | – | > 100 µM (inactive) | > 100 µM (inactive) | > 100 µM (inactive) | > 100 µM (inactive) | – | > 100 µM (inactive) | > 100 µM | > 100 µM (inactive) | > 100 µM (inactive) | > 100 µM (inactive) | > 100 µM (inactive) | > 100 µM (inactive) | > 100 µM (inactive) | > 100 µM (inactive) | > 100 µM (inactive) | > 100 µM (inactive) | > 100 µM (inactive) |
| CSc1nc(NC2OCC(O)C(O)C2O)c(N)c(=O)[nH]1 (centres undefined) | > 100 µM (inactive) | > 100 µM (inactive) | – | > 100 µM (inactive) | > 100 µM (inactive) | > 100 µM (inactive) | > 100 µM (inactive) | > 100 µM (inactive) | > 100 µM (inactive) | > 100 µM | > 100 µM (inactive) | > 100 µM (inactive) | > 100 µM (inactive) | – | > 100 µM (inactive) | > 100 µM (inactive) | > 100 µM (inactive) | > 100 µM (inactive) | > 100 µM (inactive) | > 100 µM (inactive) |
